Laboratory results from US9884859B2, “Solid form of pyrazolopyridine compound” (SUNSHINE LAKE PHARMA CO., LTD., priority 2013, dated 2018).

How the values were obtained:
[1] = Stability (acceleration) test of crystalline forms, purity by HPLC; type: physicochemical; conditions: for change of appearance, related substance and crystalline form: 30 days; for Overall impurity (%) / impurity A (%) / impurity B (%) / purity (%): HPLC; for appearance: cell wraps ('powder' on next line)
[2] = Hygroscopicity test (Chinese Pharmacopoeia 2010, weight gain by sorption); type: physicochemical; conditions: 25° C.±1° C., about 24 h; for Result (hygroscopic properties): cell wraps: 'Low hygroscopic'; for Weight gain by absorption (%): constant humidity (saturated ammonium chloride or ammonium sulfate)
Experimental: Hygroscopicity Test of Crystalline Form I and Form III of the Compound of Formula (I) 1 Instrument and Regents 1.1 Instrument: 1/100000 Scale, XP205DR 1.2 Test Method According to “Chinese Pharmacopoeia”2010 edition, proportion II, XI X J. 1) Keep a dry glass weighing bottle with stopper (external diameter: 50 mm, height: 15 mm) in 25° C.±1° C. of thermostatic drier with saturated solution of ammonium chloride or ammonium sulfate placing on the bottom, precisely weighed (m1). 2) An appropriate amount of sample was spread in the weighing bottle by a millimeter thick, precisely weighed (m2). 3) An open weighing bottle and lid were kept together in environment of constant temperature and humidity for about 24 h.

[3] = day 0, cell wraps: shows characteristic peaks of the crystalline form
[4] = day 30, 40° C.±2° C./75% RH±5%, Yes = shows characteristic peaks of the crystalline form

| Compound | stability ([1]; 40° C.±2° C./75% RH±5%) | change of appearance, related substance and crystalline form ([1]; 40° C.±2° C./75% RH±5%) | Overall impurity (%) ([1]; day 0, 40° C.±2° C./75% RH±5%) | impurity A (%) ([1]; day 0, 40° C.±2° C./75% RH±5%) | impurity B (%) ([1]; day 0, 40° C.±2° C./75% RH±5%) | purity (%) ([1]; day 0, 40° C.±2° C./75% RH±5%) | appearance ([1]; day 0, 40° C.±2° C./75% RH±5%) | DSC [1, 3] | XRD [1, 3] | Overall impurity (%) ([1]; day 30, 40° C.±2° C./75% RH±5%) | impurity A (%) ([1]; day 30, 40° C.±2° C./75% RH±5%) | impurity B (%) ([1]; day 30, 40° C.±2° C./75% RH±5%) | purity (%) ([1]; day 30, 40° C.±2° C./75% RH±5%) | DSC [1, 4] | XRD [1, 4] | appearance ([1]; day 30, 40° C.±2° C./75% RH±5%) | Result (hygroscopic properties) [2] | Weight gain by absorption (%) [2] [%] |
| --- | --- | --- | --- | --- | --- | --- | --- | --- | --- | --- | --- | --- | --- | --- | --- | --- | --- | --- |
| COC(=O)N(C)c1c(N)nc(-c2nn(Cc3ccccc3F)c3ncccc23)nc1N [crystalline form III, methyl {4,6-diamino-2-[1-(2-fluorobenzyl)-1H-pyrazolo[3,4-B]pyridine-3-yl]pyrimidine-5-yl}N-methylcarbamate] | stable for a month | did not change | 0.65 | 0.05 | 0.35 | 99.4 | pale yellow | Show | Show | 0.57 | 0.04 | 0.34 | 99.4 | Yes | Yes | pale yellow | Low | 0.04 |
| COC(=O)N(C)c1c(N)nc(-c2nn(Cc3ccccc3F)c3ncccc23)nc1N [crystalline form I, methyl {4,6-diamino-2-[1-(2-fluorobenzyl)-1H-pyrazolo[3,4-B]pyridine-3-yl]pyrimidine-5-yl}N-methylcarbamate] | stable for a month | did not change | 0.44 | 0.06 | 0.26 | 99.6 | Off-white | Shows | Shows | 0.43 | 0.06 | 0.26 | 99.6 | Yes | Yes | Off-white | Low | 0.1 |
